Measurements taken from ChEMBL document CHEMBL1201862, “PubChem BioAssay data set” (2004).
Active and inactive are the calls of the source.

Key:
[1] = biological target: T1, Bcl-2-related protein A1 (Mus musculus, UniProt Q07440); experiment: displacement of Bid BH3 peptide from Bfl-1 – biochemical, fluorescence polarization, FITC-Bid, mouse, primary screen (AID 432)
T1 sequence (Q07440 whole entry): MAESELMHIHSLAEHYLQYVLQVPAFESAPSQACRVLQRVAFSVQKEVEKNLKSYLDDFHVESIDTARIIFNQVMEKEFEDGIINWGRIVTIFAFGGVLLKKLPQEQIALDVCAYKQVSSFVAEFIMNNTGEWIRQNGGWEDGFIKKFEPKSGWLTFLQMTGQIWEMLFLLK

[2] = biological target: T1, Bcl-2-related protein A1; experiment: small-molecule antagonists of Bfl-1/BH3 interaction – biochemical, TR-FRET, mouse Bfl-1, confirmation (AID 621);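 also: TR-FRET binding of GST-Bfl-1 to FITC-labelled Bid peptide via terbium antibody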
[3] = tested on: Streptococcus sp. 'group A'; experiment: Streptococcus pyogenes SK(-)GAS viability under kanamycin – luminescence, BacTiterGlo, confirmation, counter-screen for streptokinase expression inhibitor project, dose response (AID 1900); type: functional, organism-based
[4] = biological target: T2, Streptokinase A (Streptococcus pyogenes serotype M1, UniProt P10520); experiment: viability-normalized secreted streptokinase activity reduction – plasminogen activation absorbance, OD405, dose response (AID 1914); type: functional, Streptococcus pyogenes M1 GAS;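 also: secreted streptokinase activity via plasminogen activation per viability signal from cell pellet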
T2 sequence (P10520 whole entry): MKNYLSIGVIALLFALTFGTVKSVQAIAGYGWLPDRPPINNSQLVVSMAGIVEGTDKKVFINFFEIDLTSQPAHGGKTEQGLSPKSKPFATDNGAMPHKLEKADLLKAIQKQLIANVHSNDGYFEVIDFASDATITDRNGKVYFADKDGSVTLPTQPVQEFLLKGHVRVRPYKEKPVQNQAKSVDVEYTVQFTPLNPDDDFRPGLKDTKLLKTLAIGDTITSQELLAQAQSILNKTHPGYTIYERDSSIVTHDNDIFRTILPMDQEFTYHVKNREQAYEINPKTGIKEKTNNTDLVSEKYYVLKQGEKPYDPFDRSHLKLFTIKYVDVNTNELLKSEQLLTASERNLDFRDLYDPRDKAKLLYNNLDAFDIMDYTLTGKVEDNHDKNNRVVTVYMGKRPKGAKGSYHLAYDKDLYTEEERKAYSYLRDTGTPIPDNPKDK

[5] = antiviral protection against BTV-induced cell death – arbovirus, BSR cells, confirmation (AID 1250); type: functional;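 also: protection from viral cytopathic effect measured as cell viability by ATP luminescence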
[6] = tested on: Streptococcus; experiment: GAS UMAA2166 growth inhibition – luminescence, BacTiterGlo, counter-screen for streptokinase expression inhibitor project, dose response (AID 1915); type: functional, organism-based;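 also: potency for reduction of bacterial viability or growth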
[7] = Luminescence Cell-Based Dose Retest to Confirm Inhibitors of Cancer Stem Cells. [Related pubchem assays (depositor defined):AID2717, AID2721]; type: functional; conditions: Homo sapiens
[8] = biological target: Prothrombin (Homo sapiens, UniProt P00734); experiment: Thrombin 1536 HTS Dose Response Confirmation. [Related pubchem assays: 1046 (Thrombin 1536 HTS; hits were confirmed in this assay)]; type: functional
[9] = biological target: Cytochrome P450 2C19 (Homo sapiens, UniProt P33261); experiment: Cytochrome panel assay with activity outcomes. Panel member name: p450-cyp2c19 Compounds with AC50 equal or less than 10 uM are considered active; type: functional; conditions: read-out: AC50
Sequence of Cytochrome P450 2C19 (P33261 whole entry): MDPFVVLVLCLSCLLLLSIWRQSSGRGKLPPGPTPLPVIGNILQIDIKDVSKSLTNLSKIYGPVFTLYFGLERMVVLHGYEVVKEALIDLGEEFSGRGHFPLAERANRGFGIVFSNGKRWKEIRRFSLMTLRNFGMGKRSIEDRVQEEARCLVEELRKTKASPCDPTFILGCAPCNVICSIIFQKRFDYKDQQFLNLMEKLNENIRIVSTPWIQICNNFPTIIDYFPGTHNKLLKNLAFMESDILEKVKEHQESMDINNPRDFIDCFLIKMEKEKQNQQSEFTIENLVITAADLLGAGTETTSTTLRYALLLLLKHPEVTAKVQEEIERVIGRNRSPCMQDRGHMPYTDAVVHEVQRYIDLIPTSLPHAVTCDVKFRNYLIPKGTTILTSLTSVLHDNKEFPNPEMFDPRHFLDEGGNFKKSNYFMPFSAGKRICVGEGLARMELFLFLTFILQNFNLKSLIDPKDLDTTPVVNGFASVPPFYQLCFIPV

[10] = biological target: T3, Replicative DNA helicase DnaB (Mycobacterium tuberculosis, UniProt P9WMR3); experiment: DnaB intein splicing inhibitors, dose response, biochemical, cell-free fluorescence (AID 449749); type: functional
T3 sequence (P9WMR3 whole entry): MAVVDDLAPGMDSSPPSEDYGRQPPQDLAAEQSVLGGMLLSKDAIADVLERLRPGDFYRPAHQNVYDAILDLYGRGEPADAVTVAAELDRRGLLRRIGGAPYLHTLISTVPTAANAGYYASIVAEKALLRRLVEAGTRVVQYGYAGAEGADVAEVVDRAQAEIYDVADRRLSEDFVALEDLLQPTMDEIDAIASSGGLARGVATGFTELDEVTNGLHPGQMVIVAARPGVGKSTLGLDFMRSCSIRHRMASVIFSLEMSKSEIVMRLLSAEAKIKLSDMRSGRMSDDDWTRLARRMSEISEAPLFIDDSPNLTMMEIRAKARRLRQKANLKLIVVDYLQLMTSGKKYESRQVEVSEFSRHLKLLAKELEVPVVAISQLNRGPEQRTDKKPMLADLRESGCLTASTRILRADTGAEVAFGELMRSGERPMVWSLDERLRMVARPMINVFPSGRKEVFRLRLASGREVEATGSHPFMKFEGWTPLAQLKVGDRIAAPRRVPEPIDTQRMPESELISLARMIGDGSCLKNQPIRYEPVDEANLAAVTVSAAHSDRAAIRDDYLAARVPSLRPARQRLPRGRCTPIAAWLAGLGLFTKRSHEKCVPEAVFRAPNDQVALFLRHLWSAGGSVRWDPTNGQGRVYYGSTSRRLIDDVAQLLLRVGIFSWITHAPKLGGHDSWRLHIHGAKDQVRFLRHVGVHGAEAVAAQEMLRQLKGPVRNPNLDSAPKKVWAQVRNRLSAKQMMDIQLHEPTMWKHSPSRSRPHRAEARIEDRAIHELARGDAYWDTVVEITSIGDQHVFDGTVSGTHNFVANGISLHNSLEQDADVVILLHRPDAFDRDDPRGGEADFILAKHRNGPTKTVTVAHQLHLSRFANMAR

[11] = biological target: T4, Protein RecA (Mycobacterium tuberculosis, UniProt P9WHJ3); experiment: Fluorescence Cell-Free Homogeneous Dose Retest to Identify Inhibitors of RecA-Intein Splicing Activity. [Related pubchem assays (depositor defined):AID2097, AID2223, AID489010, AID492950]; type: functional
T4 sequence (P9WHJ3 whole entry): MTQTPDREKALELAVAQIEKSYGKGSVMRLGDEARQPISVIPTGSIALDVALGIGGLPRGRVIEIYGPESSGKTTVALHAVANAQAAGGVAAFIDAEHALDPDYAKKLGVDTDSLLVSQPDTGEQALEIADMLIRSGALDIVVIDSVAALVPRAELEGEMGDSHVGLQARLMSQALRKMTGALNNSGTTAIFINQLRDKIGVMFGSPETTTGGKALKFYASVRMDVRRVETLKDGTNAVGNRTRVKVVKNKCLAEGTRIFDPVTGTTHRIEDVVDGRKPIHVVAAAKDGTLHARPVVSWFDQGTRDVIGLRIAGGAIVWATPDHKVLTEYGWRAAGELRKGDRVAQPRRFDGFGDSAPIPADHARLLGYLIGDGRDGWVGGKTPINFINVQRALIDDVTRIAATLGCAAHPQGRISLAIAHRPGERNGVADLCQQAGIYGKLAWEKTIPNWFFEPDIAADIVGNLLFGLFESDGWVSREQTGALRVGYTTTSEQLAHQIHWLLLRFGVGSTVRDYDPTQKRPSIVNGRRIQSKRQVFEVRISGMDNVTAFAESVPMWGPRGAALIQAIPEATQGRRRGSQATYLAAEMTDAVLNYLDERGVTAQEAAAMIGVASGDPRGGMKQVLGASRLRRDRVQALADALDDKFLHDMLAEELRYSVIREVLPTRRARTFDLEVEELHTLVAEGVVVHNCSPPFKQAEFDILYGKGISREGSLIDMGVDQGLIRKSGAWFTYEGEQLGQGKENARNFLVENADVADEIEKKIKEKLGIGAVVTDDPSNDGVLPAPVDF

[12] = biological target: Cytochrome P450 2C9 (Homo sapiens, UniProt P11712)
Sequence of Cytochrome P450 2C9 (P11712 whole entry): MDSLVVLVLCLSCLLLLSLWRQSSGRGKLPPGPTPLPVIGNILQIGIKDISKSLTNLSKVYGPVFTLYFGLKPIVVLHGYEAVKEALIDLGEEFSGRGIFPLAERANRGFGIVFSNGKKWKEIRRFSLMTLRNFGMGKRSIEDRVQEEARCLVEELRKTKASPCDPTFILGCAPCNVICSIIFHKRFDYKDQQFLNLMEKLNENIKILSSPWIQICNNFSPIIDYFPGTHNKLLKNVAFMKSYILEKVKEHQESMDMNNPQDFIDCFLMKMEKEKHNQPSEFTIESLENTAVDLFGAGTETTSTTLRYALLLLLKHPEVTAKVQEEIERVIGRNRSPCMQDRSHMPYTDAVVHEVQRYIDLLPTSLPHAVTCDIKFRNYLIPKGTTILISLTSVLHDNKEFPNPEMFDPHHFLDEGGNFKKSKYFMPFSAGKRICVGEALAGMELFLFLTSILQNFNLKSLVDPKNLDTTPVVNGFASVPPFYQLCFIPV

[13] = decrease of insulin promoter-GFP reporter – imaging, high-content screening, mouse beta cells (AID 1628); type: functional; conditions: MIN6
[14] = tested on: BJ; experiment: BJ-TERT fibroblast viability loss – cell-based, RAS-independent, luminescence, dose response (AID 1933); type: functional; conditions: Homo sapiens
[15] = MIN6 cell viability loss – mouse insulinoma, cytotoxicity control, dose response (AID 2122); type: functional;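 also: confirmatory high-throughput counterscreen run to flag cytotoxic compounds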
[16] = tested on: BJ; experiment: cells; type: functional, cell-based; conditions: Homo sapiens
[17] = Luminescence-based dose response cell-based high throughput screening assay for cytotoxic compounds using the IEC-6 intestinal epithelial cell line. [Related pubchem assays: 1858 (Summary AID.), 1825 (Counterscreen.), 1907 (Confirmation screen.)]; type: functional
[18] = tested on: BJ; experiment: BJ-TERT-LT-ST fibroblast viability loss – cell-based, RAS-independent, luminescence, dose response (AID 1935); type: functional; conditions: Homo sapiens;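 also: BJ fibroblasts immortalized with TERT plus LT and ST oncogenes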
[19] = DRD fibroblast viability loss – cell-based, non-viral oncogenic, luminescence, dose response (AID 1934); type: functional; conditions: Homo sapiens
[20] = tested on: BJ; experiment: growth inhibition of engineered Ras-driven BJ cells – cell-based, alamar blue fluorescence, cherrypicked samples, dose response (AID 2631); type: functional; conditions: Homo sapiens;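 also: confirmatory dose-response assay in RAS-dependent BJ fibroblasts engineered with TERT, LT and ST, with cytotoxicity read by fluorescence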
[21] = tested on: INS1; experiment: INS-1E survival protection against cytokine death – cell-based, luminescence, retest, dose response (AID 449756); type: functional; conditions: Rattus norvegicus;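 also: cell death triggered by IL-1 beta plus TNF-alpha plus IFN-gamma mixture; protective hits raise ATP signal compared with cytokine alone wells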
[22] = biological target: Paired box protein Pax-8 (Homo sapiens, UniProt Q06710); experiment: PAX8 transcriptional activity inhibition in RMG-I – RMG-I cells, luciferase, cherry-pick, dose response (AID 687027); type: functional, cell-based;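 also: luciferase reporter driven by Pax8 target thyroperoxidase promoter measured by SteadyGlo luminescence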
Sequence of Paired box protein Pax-8 (Q06710 whole entry): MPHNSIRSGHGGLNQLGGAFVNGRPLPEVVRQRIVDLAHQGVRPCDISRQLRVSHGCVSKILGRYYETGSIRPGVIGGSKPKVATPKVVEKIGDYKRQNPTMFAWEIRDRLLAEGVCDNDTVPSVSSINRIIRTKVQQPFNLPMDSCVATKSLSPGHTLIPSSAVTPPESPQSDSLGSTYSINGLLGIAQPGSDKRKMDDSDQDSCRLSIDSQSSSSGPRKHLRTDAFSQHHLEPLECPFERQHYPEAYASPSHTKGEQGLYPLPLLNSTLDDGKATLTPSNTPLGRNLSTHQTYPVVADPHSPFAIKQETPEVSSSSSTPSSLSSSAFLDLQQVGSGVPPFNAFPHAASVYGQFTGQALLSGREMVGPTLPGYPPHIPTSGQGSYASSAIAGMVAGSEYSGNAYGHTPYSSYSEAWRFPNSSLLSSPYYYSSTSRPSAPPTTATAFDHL

[23] = biological target: Luciferin 4-monooxygenase (Photinus pyralis, UniProt P08659); experiment: Counter Screen for Luciferase-based Assay Positives. [Related pubchem assays: 620, 618, 411 ]
Sequence of Luciferin 4-monooxygenase (P08659 whole entry): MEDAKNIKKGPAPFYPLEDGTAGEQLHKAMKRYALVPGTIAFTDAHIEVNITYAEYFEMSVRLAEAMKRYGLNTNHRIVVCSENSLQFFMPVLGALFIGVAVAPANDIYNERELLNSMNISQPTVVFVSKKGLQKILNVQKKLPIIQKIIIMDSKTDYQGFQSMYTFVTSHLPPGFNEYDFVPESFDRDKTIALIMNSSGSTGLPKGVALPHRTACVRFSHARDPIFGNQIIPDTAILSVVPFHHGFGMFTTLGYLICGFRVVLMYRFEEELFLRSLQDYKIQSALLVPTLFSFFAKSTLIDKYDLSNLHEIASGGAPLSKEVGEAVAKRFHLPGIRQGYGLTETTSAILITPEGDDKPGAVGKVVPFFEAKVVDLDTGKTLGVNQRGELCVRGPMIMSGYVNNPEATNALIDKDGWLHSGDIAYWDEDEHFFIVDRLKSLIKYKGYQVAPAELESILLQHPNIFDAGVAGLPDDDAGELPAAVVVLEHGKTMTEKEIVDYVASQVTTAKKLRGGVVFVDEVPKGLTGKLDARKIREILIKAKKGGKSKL

[24] = tested on: HT-1080; experiment: HT1080 cell viability loss – fluorescence readout (AID 620); type: functional, cell-based; conditions: Homo sapiens
[25] = biological target: 14-3-3 protein gamma (Homo sapiens, UniProt P61981); experiment: modulators of 14-3-3 gamma client binding – dose response (AID 711); type: functional
Sequence of 14-3-3 protein gamma (P61981 whole entry): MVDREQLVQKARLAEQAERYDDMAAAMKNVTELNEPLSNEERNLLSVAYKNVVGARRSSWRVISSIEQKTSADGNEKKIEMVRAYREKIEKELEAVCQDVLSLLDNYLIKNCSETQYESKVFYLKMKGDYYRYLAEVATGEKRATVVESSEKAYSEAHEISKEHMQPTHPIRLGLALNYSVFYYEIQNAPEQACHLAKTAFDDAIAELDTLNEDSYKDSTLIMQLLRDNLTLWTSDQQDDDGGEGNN

[26] = biological target: Protein-tyrosine kinase 2-beta (Homo sapiens, UniProt Q14289);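 also: potency of inhibitors of PYK2 kinase phosphorylation of poly-GT substrate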
Sequence of Protein-tyrosine kinase 2-beta (Q14289 whole entry): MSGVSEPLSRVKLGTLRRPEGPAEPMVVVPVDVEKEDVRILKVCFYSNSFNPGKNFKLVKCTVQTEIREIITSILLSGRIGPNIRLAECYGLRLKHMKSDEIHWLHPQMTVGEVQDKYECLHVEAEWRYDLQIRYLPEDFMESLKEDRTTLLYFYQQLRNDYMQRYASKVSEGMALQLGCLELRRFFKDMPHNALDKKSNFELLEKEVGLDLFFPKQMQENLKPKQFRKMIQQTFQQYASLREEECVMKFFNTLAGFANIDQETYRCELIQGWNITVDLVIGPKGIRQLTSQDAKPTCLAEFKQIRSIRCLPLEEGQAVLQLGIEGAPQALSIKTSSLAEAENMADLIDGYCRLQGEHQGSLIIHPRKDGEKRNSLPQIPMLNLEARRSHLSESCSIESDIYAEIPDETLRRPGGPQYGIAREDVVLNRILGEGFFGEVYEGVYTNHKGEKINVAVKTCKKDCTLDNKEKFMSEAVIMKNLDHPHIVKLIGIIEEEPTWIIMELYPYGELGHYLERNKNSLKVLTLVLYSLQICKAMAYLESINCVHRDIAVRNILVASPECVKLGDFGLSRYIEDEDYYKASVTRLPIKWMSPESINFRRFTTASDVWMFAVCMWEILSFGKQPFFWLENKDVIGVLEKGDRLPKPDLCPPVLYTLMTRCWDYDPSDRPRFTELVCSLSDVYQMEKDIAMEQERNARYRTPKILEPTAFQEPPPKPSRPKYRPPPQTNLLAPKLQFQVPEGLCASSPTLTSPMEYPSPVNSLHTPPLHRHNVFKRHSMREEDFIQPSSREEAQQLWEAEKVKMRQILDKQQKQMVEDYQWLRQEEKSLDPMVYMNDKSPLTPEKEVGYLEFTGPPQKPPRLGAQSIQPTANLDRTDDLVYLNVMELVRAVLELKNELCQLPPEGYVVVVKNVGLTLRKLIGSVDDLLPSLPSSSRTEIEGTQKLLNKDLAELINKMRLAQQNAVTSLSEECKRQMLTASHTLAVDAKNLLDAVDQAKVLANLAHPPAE

With `Cc1cc(C)c2c3c(c(-c4ccccc4)n2n1)c(=O)n(C)c(=O)n3C` the IC50 [1] was > 100 µM (not active) and the IC50 [2] was > 100 µM (not active).

For `Cc1ccc(-c2csc3ncnc(NS(=O)(=O)c4ccc(Cl)cc4)c23)cc1`, the EC50 [3] was 4.44 µM (active), the EC50 [4] was 16.2 µM (active) and the IC50 [5] was 35.5 µM (active). The EC50 [6] was 66.7 µM (active) and the AC50 [7] was 9.42 µM (active).

In the case of `CCOC(=O)CSc1n[nH]c(NC(=O)c2cccc(C(F)(F)F)c2)n1`, the IC50 [8] is reported as 0.515 µM (active), the AC50 [9] is reported as 2.51 µM (inconclusive) and the AC50 [10] is reported as 11.3 µM (active). For the same compound, the EC50 [11] was 12.4 µM (active) and the AC50 [12] was 5.01 µM (inconclusive).

With `CCOc1ccc(C(=O)c2cc([N+](=O)[O-])ccc2N2CCOCC2)cc1` the IC50 [13] was 0.263 µM (active), the EC50 [14] was 0.406 µM (active) and the IC50 [15] was < 0.25 µM (active). For the same compound, the EC50 [16] was 0.632 µM (active), the IC50 [17] was 0.0558 µM (active) and the EC50 [18] was 0.401 µM (inconclusive). The EC50 [19] was 0.358 µM (active), the EC50 [20] was < 0.104 µM (active) and the AC50 [21] was 0.775 µM (active). For the same compound, the AC50 [22] was < 0.26 µM (active).

In the case of `Cc1ccc(-c2nc3cc(N)ccc3o2)cc1`, the EC50 [23] is reported as 4.68 µM (active) and the EC50 [24] is reported as > 50 µM (not active).

With `CN1C(=O)C(Cc2c[nH]c3ccccc23)C(=O)N(C)C1=O` the IC50 [25] was > 50 µM (not active).

With `O=C(Oc1ccccc1)c1c(Cl)cccc1P(=O)(O)O` the IC50 [26] was 6.43 µM (active).
